{"source": "patent US7115662B2", "about": "“Certain 5-alkyl-2-arylaminophenylacetic acids and derivatives” (Novartis AG, priority 1997, dated 2006)", "key": {"[1]": {"system": "pain threshold in yeast-inflamed paw", "assay": "Randall-Selitto paw pressure assay", "type": "in vivo, rat", "details": "male Wistar rats; 10 mg/kg orally; 1 h after dosing", "experimental": "The analgesic activity of the compounds of the invention is determined using the well-known Randall-Selitto assay.\nThe Randall-Selitto paw pressure assay measures antinociception (analgesic activity) in inflamed tissue by comparing the pressure threshold in the inflamed paw of the rat after oral administration of test drug with that in the inflamed paw of rats administered corn starch vehicle orally.\nGroups of 10 male Wistar rats weighing 40–50 gms are fasted overnight prior to testing. Hyperalgesia is induced by the injection of 0.1 ml of a 20% suspension of Brewer's yeast with a 26 gauge needle into the subplantar region of the right hindpaw. The left paw is not injected and is used as the control paw for determination of hyperalgesia. Vehicle (Fortified corn starch suspension 3%) at 10 ml/kg, reference compound (diclofenac is run in every experiment at the same dose as test compounds) and test compounds at different doses suspended in vehicle at 10 ml/kg are administered orally 2 hours after the yeast injection. The threshold for paw withdrawal is quantified with a Basile Analgesy-meter 1 hour after oral administration of test compounds. The nociceptive threshold is defined as the force in grams at which the rat withdraws its foot or vocalizes. Either vocalization or foot withdrawal is recorded as a response.\nThe data are analyzed by comparing the mean pain threshold of the corn starch vehicle-treated group for the inflamed and non-inflamed paws to that of individual drug-treated rats. Individual rats in the drug-treated groups and positive control (diclofenac) group are called reactors if the individual pain threshold in each paw exceeds the control group mean threshold by two standard deviations of that mean. The mean pain thresholds of the inflamed paw in the control group are compared to the individual pain thresholds of the inflamed paw in the test drug group. The non-inflamed control mean pressure threshold is compared to the non-inflamed individual pressure thresholds in the test groups. Results are expressed as number of reactors in each test group (n=10) for inflamed and non-inflamed paws. Percentages are calculated by dividing number of reactors by total number of rats used for a compound."}, "cyclooxygenase-1 (COX-1)": {"target": "T1, cyclooxygenase-1 (COX-1) (Homo sapiens, UniProt P23219)", "T1 construct": "expressed in transfected cells; host or cells: human kidney epithelial cell line 293, stably transfected", "T1 sequence (P23219 24-599, species assumed)": "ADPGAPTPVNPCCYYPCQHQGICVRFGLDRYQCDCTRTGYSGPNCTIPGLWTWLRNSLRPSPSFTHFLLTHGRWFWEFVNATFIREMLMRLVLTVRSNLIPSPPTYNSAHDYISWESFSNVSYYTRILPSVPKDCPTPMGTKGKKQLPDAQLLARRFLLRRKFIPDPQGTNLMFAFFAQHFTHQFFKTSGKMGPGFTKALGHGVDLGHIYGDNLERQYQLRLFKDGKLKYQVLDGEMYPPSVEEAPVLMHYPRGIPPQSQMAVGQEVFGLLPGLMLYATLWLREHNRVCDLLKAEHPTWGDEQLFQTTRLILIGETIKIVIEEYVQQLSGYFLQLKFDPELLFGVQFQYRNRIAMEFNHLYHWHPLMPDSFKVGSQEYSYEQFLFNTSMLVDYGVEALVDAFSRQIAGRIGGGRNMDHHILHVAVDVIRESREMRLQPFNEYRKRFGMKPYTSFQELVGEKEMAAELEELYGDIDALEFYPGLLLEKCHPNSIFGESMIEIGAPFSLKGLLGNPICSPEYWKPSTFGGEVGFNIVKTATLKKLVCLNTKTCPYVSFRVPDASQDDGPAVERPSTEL", "assay": "cellular COX-1 inhibition assay (293 cells stably transfected with COX-1, PGE2 radioimmunoassay)", "type": "cell-based", "details": "293 cells expressing COX-1; 30 μM compound", "experimental": "(§1) Cyclooxygenase inhibition is determined in vitro using cellular assays for inhibition of both cyclooxygenase-1 and cyclooxygenase-2.\n(§2) The cellular assays for testing cyclooxygenase inhibitors are based on the fact that the cyclooxygenase enzyme (prostaglandin H synthase) catalyzes the rate limiting step in prostaglandin synthesis from arachidonic acid. Two enzymes mediate the reaction: COX-1 is a constitutive form of the enzyme whereas COX-2 is induced in response to various growth factors and cytokines. Cell lines have been established which express one form of the enzyme: a human skin fibroblast line which can be induced with IL-1 to synthesize COX-2, and the kidney epithelial cell line 293 which has been stably transfected to constitutively express COX-1. Both isoforms metabolize arachidonic acid into the stable metabolite prostaglandin E2. Arachidonic acid can be added exogenously to increase output to easily measurable levels. The levels of prostaglandin E2 in the extracellular medium are assayed by radioimmunoassay as a measure of enzyme activity. The relative activities of each isoform are compared to assess compound selectivity.\n(§3) In vitro cyclooxygenase-1 (COX-1) and cyclooxygenase-2 (COX-2) inhibition is determined in the cell-based assays in order to assess the in vitro activity and selectivity for COX-2 inhibition, using a prostaglandin E2 radioimmunoassay. The cells utilized are primary human fibroblasts induced with interleukin-1 to produce COX-2, and the human kidney epithelial cell line 293 stably transfected to produce COX-1 constitutively. Cells are plated out into well plates in which the assay is performed. Fibroblasts are stimulated to synthesize COX-2 by treatment overnight with IL-1; the 293 cells require no induction. Both cell lines are pre-treated with compound dilutions for 15 minutes at 37° C., then 40 μM arachidonic acid is added as exogenous substrate for the production of PGE2, which is measured in supernatant by radioimmunoassay. […]"}, "cyclooxygenase-2 (COX-2)": {"target": "T2, cyclooxygenase-2 (COX-2) (Homo sapiens, UniProt P35354)", "T2 construct": "endogenous in cells; host or cells: primary human skin fibroblasts induced with IL-1", "T2 sequence (P35354 18-604)": "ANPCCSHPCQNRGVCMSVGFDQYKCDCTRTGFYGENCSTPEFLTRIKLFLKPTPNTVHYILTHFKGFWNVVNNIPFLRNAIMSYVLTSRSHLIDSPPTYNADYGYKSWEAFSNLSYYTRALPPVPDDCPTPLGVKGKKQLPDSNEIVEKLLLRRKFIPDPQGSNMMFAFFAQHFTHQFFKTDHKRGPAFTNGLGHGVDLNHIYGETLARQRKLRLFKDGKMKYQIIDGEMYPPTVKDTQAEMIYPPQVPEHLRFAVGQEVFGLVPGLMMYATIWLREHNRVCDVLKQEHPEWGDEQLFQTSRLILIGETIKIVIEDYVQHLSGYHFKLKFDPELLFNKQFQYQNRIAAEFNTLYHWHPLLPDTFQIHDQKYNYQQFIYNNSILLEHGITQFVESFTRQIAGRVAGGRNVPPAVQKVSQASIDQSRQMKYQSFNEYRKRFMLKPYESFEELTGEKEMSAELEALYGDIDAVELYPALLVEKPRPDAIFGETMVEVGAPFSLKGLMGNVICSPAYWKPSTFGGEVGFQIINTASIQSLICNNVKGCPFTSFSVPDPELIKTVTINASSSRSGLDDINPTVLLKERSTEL", "assay": "cellular COX-2 inhibition assay (IL-1 induced human fibroblasts, PGE2 radioimmunoassay)", "type": "cell-based", "details": "primary human fibroblasts induced with IL-1, 40 μM arachidonic acid", "experimental": "as §1, §2, §3"}, "gross gastric ulceration": {"system": "gross gastric ulceration", "assay": "gastric tolerability assay", "type": "in vivo", "details": "rat; 100 mg/kg p.o.; four hours after administration", "experimental": "The gastric tolerability assay is used to assess gross ulceration in the rat, measured four hours after oral administration of the test compound. The test is carried out as follows: Rats are fasted overnight, administered compound in fortified cornstarch vehicle by gavage, and sacrificed by carbon dioxide inhalation four hours later. The stomachs are removed and gross gastric lesions counted and measured to give the total lesion length per rat. Each experiment contains the following groups (5–6 rats per group): vehicle control, test compounds, and diclofenac as a reference compound. Data are calculated as the mean number of ulcers in a group, the mean length of ulcers (mm) in the group and as the ulcer index (UI). UI=mean length of ulcers in a group×ulcer incidence where ulcer incidence is the fraction of animals in the group with lesions (100% incidence is 1)."}, "intestinal permeability": {"system": "intestinal permeability", "assay": "intestinal tolerability (51Cr-EDTA intestinal permeability)", "type": "in vivo", "details": "rat; 30 mg/kg p.o.; 51Cr-EDTA urinary excretion over 24 h", "experimental": "Intestinal tolerability can be determined by measuring the effect on intestinal permeability. Lack of increase in permeability is indicative of intestinal tolerability. The method used is a modification of a procedure by Davies, et al., Pharm. Res. 1994; 11:1652–1656 and is based on the fact that excretion of orally administered ^51Cr-EDTA, a marker of small intestinal permeability, is increased by NSAIDs. Groups of rats (≧12/group) are administered a single, oral dose of test compound or vehicle by gastric intubation. Immediately following compound dose, each rat is administered ^51Cr-EDTA (5 μCi/rat) by gastric intubation. The rats are placed in individual metabolic cages and given food and water ad libitum. Urine is collected over a 24 hour period. Twenty-four hours after administration of ^51Cr-EDTA the rats are sacrificed. To quantify compound effect on intestinal permeability, the excreted ^51Cr-EDTA measured in the urine of compound treated rats is compared to the excreted ^51Cr-EDTA measured in the urine of vehicle treated rats. Relative permeability is determined by calculating the activity present in each urine sample as a percent of the administered dose after correcting for background radiation."}}, "data": [{"smiles": "Cc1ccc(Nc2c(F)cccc2Cl)c(CC(=O)O)c1", "note": "[1(d), 5-methyl-2-(2′-chloro-6′-fluoroanilino)phenylacetic acid]", "values": [{"measurement": "pain threshold in the inflamed paw", "setting": "[1]", "result": "increase the pain threshold"}, {"measurement": "pain threshold in the non-inflamed paw", "setting": "[1]", "result": "no threshold elevation"}, {"measurement": "COX-1 inhibition at 30 μM", "setting": "cyclooxygenase-1 (COX-1)", "result": "no significant COX-1 inhibition"}, {"measurement": "IC50", "setting": "cyclooxygenase-2 (COX-2)", "result": "~130", "unit": "nM"}, {"measurement": "gastric ulcerogenic effect", "setting": "gross gastric ulceration", "result": "essentially free of any gastric ulcerogenic effect"}, {"measurement": "effect on intestinal permeability", "setting": "intestinal permeability", "result": "no effect or only a minimal effect"}]}, {"smiles": "CCc1ccc(Nc2c(F)c(F)cc(F)c2F)c(CC(=O)O)c1", "note": "[3(a), 5-ethyl-2-(2′, 3′,5′,6′-tetrafluoroanilino)phenylacetic acid]", "values": [{"measurement": "pain threshold in the inflamed paw", "setting": "[1]", "result": "increase the pain threshold"}, {"measurement": "pain threshold in the non-inflamed paw", "setting": "[1]", "result": "no threshold elevation"}, {"measurement": "COX-1 inhibition at 30 μM", "setting": "cyclooxygenase-1 (COX-1)", "result": "no significant COX-1 inhibition"}, {"measurement": "IC50", "setting": "cyclooxygenase-2 (COX-2)", "result": "~7", "unit": "nM"}, {"measurement": "gastric ulcerogenic effect", "setting": "gross gastric ulceration", "result": "essentially free of any gastric ulcerogenic effect"}, {"measurement": "effect on intestinal permeability", "setting": "intestinal permeability", "result": "no effect or only a minimal effect"}]}, {"smiles": "Cc1ccc(Nc2c(F)cc(F)cc2Cl)c(CC(=O)O)c1", "note": "[Example 1(g), 5-methyl-2-(2′,4′-difluoro-6′-chloroanilino)phenylacetic acid]", "values": [{"measurement": "pain threshold in the inflamed paw", "setting": "[1]", "result": "increase the pain threshold"}, {"measurement": "pain threshold in the non-inflamed paw", "setting": "[1]", "result": "no threshold elevation"}, {"measurement": "COX-1 inhibition at 30 μM", "setting": "cyclooxygenase-1 (COX-1)", "result": "no significant COX-1 inhibition"}, {"measurement": "melting point", "result": "157 to 159", "unit": "°C"}, {"measurement": "IC50", "setting": "cyclooxygenase-2 (COX-2)", "result": "~250", "unit": "nM"}, {"measurement": "gastric ulcerogenic effect", "setting": "gross gastric ulceration", "result": "essentially free of any gastric ulcerogenic effect"}, {"measurement": "effect on intestinal permeability", "setting": "intestinal permeability", "result": "no effect or only a minimal effect"}]}]}
